tested on: T-tropic HIV; experiment: Phenoscreen assay: inhibition of cellular entry of HIV (luciferase-tagged test vector, target host cells); format: cell-based; details: Human immunodeficiency virus 1, read-out: IC50 value for viral entry inhibition
Method: A selected set of compounds are tested for their ability to inhibit the cellular entry of T-tropic HIV. The assay for this inhibition was carried out by Monogram Biosciences, Inc. using their well established Phenoscreen™ assay. Briefly, HIV strains of interest are tagged with a luciferase indicator gene to create an appropriate test vector. The test vector is amplified through transfection and the resulting virus is incubated in the presence of target host cells where intracellular florescence activity then becomes a measure of infection. Amplified virus is exposed to target host cells in the presence of a range of test drug concentrations to determine IC50 measurements of entry inhibition. A modification of this test is further reapplied as a novel drug assay used in partnership with a number of pharmaceutical companies to test the effectiveness of novel entry inhibitors that target specific chemokines. It can used to detect activity against T-tropic, M-tropic, and dual-tropic viruses and Monogram Biosciences has a large bank of over 10,000 different virus strains to ultimately assess the range of applicability of our chemokine modulators. Certain compounds are tested to establish efficacy in a number of viral strains.

| SMILES | IC50 [µM] |
| --- | --- |
| O=C(NCc1ccccc1)c1ccc(C(=O)NNc2ccccc2)cc1 | ≤ 10 |
| O=C(NCc1ccc(C(=O)N(Cc2ccccc2)N2CCOCC2)cc1)c1cccs1 [A, N-(4-(benzyl(morpholino)carbamoyl)benzyl)thiophene-2-carboxamide] | ≤ 10 |
| O=C(NNc1ccc(C(F)(F)F)cc1)c1ccc(CNCc2ccccc2)cc1 [AA, 4-((benzylamino)methyl)-N′-(4-(trifluoromethyl)phenyl)benzohydrazide] | ≤ 10 |
| N#Cc1ccc(NNC(=O)c2ccc(CNCc3ccccc3)cc2)cc1 [AB, 4-((benzylamino)methyl)-N′-(4-cyanophenyl)benzohydrazide] | ≤ 10 |
| O=C(NNc1ccc(F)cc1F)c1ccc(CNCc2ccccc2)cc1 [AF, 4-((benzylamino)methyl)-N1′-(2,4-difluorophenyl)benzohydrazide] | ≤ 10 |
| O=C(NNc1ccccc1)c1ccc(CNCc2ccccn2)cc1 [AL, N′-phenyl-4-((pyridin-2-ylmethylamino)methyl)benzohydrazide] | ≤ 10 |
| O=C(NCc1ccccn1)c1ccc(C(=O)NNc2ccccc2)cc1 [AO, 4-(2-phenylhydrazinecarbonyl)-N-(pyridin-2-ylmethyl)benzamide] | ≤ 10 |
| C[C@H](NC(=O)NCc1ccc(C(=O)NNc2ccccc2)cc1)c1cccc2ccccc12 [BE, (S)-4-((3-(1-(naphthalen-1-yl)ethyl)ureido)methyl)-N′-phenylbenzohydrazide] | ≤ 10 |
| O=C(NNc1ccccc1)c1ccc(CNCc2ccccc2)cc1 [Z, 4-((benzylamino)methyl)-N′-phenylbenzohydrazide] | ≤ 10 |

tested on: not given; experiment: not given; details: in vivo; cited from earlier work

| SMILES | side effect in clinical study |
| --- | --- |
| c1cc(CN2CCCNCCNCCCNCC2)ccc1CN1CCCNCCNCCCNCC1 [AMD3100] | cardiac-related side effect |
